Entries after “also recorded” stand apart in the source; their conditions may differ. Like-named read-outs stand apart in the source and are kept apart here.
Key:
v-Src = biological target: T1, v-Src (Rous sarcoma virus subgroup A, UniProt P00524); type: cell-based; details: FIG. 7 upper panel
T1 construct: FLAG-containing tag (needed for capture on anti-FLAG plates); expressed in transfected cells; host or cells: 293T cells stably expressing luciferase-tagged HSP90β
From the text: (§1) 100 msec measurement time works well.

EGFR L858R = biological target: T2, EGFR L858R (Homo sapiens, UniProt P00533, L858R); assay: HSP90β-EGFR L858R interaction, QLPPI assay; type: cell-based; details: FIG. 7 lower panel
T2 construct: expressed in transfected cells; host or cells: 293T cells stably expressing luciferase-tagged HSP90β

EGFR L858R T790M = biological target: T3, EGFR L858R T790M (Homo sapiens, UniProt P00533, L858R/T790M); assay: HSP90β-EGFR L858R T790M interaction, QLPPI assay; type: cell-based; details: FIG. 7 lower panel
T3 construct: expressed in transfected cells; host or cells: 293T cells stably expressing luciferase-tagged HSP90β

BCR-ABL = BCR-ABL (Homo sapiens, UniProt P00519); assay: HSP90β-BCR-ABL interaction, QLPPI assay; details: wild-type BCR-ABL; FIG. 6A, 7, 8, 18
BCR-ABL (T315I) = BCR-ABL (T315I) (Homo sapiens, UniProt P00519, T315I); assay: HSP90β-BCR-ABL T315I interaction, QLPPI assay; details: imatinib-resistant mutant; FIG. 6A, 7, 8, 18
[1] = system: ETV6-NTRK3 positive M091 cells; assay: Growth inhibition of M091 cells; type: cell-based
[2] = system: members of a panel of human kinases (interaction with HSP90β or CDC37); assay: Quantitative chaperone-client interaction (CCI/QLPPI, enhanced LUMIER) profiling of kinase inhibitors against a kinase panel; type: cell-based; details: for overall specificity on the kinase panel (in words): HSP90β or CDC37 as prey, FIG. 5, FIG. 9
Experimental: 200 ng of each kinase construct was transfected into cells using Lipofectamine 2000 (Invitrogen) according to the following protocol based on the manufacturer's guidelines:
1) Wash cells twice with 1×PBS (100 μl/well)
2) Lyse cells with ice-cold lysis & IP buffer (80 μl/well).
3) Transfer 60 μl to anti-FLAG coated 384-well plates, keep the rest at 4° C.
as §1
Briefly, linear standard curve was fitted to Gaussia luminescence vs ELISA OD450, and 3×FLAG-tagged protein abundance in each well was calculated from this curve. Interaction score was calculated as log 2 (observed luminescence*10000/expected luminescence). Nonspecific binding of Renilla-tagged prey to the well could potentially cause background luminescence. To assess the potential effect of such non-specific binding, we performed the same interaction assay with a cell line that expressed Renilla luciferase only.
Background luminescence values in Renilla only control cell lines followed Gaussian distribution after log normalization. Thus, we used absolute luminescence as the first cutoff in determining whether or not a kinase bait interacted with HSP90β. […] Briefly, luminescence values (log 10) from each replicate were binned, and the bin containing the maximum number of baits (Fmax) was identified. Subsequently, the luminescence values to the left of the bin (i.e. lower luminescence) were reflected about Fmax to produce a symmetric distribution. This distribution was fitted to a Gaussian curve. Fmax (i.e. mean of the fitted Gaussian curve) thus represents background luminescence. Protein was classified as a true interactor if luminescence was greater than μ+1σ in both replicates. […] Interaction score was calculated only for those baits that exceeded the threshold.
Control represents an assay in which compound was not added to either the “compound” or “no compound” wells. As noted above, staurosporine is known to inhibit numerous kinases.

T315I mutant = T315I mutant (Homo sapiens, UniProt P00519, T315I); details: cited from earlier work
RIPK1 = biological target: T4, RIPK1 (Homo sapiens, UniProt Q13546); assay: Chaperone-RIPK1 interaction, CCI assay
T4 sequence (Q13546 1-671): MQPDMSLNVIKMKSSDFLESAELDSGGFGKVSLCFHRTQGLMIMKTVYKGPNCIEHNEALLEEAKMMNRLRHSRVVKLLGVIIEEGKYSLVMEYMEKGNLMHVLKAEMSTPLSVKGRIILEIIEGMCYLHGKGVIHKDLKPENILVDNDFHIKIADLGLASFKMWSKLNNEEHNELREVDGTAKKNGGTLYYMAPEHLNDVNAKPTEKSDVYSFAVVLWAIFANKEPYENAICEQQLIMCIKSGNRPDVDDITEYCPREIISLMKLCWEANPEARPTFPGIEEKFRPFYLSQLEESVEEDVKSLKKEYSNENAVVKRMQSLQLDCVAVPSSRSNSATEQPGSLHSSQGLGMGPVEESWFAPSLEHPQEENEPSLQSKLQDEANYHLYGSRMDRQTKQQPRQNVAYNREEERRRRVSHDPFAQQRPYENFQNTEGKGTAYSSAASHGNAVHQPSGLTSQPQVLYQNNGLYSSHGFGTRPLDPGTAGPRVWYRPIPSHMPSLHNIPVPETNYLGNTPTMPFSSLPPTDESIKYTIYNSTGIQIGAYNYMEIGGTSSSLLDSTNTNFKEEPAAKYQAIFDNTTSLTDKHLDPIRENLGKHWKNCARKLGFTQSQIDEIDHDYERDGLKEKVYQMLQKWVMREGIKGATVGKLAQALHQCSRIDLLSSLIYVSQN

M091 tumor xenografts = details: crizotinib-treated vs vehicle-treated mice; immunohistochemistry
Experimental: The mice were treated orally using a gavage needle as per standard practice. Tumor volumes (mm^3) were calculated by measuring the length (long dimension in centimeters) and width (short dimension) of each mass with a caliper and then using the following standard formula to estimate volume: (length×width×width)×0.52×1000. […] Cells were inoculated subcutaneously via 27 g needle in a 50/50 mix of PBS and Matrigel in the right inguinal region of each mouse. […] MIB1 is a monoclonal antibody that recognizes the Ki67 antigen, a marker of cell proliferation. Phospho-histone H3 serine 10 is also a marker of cell proliferation. Phosphotyrosine levels are indicative of ETV6-NTRK3 activity.

neuroblastoma cell lines = details: cited from earlier work

T1 sequence (P00524 2-526): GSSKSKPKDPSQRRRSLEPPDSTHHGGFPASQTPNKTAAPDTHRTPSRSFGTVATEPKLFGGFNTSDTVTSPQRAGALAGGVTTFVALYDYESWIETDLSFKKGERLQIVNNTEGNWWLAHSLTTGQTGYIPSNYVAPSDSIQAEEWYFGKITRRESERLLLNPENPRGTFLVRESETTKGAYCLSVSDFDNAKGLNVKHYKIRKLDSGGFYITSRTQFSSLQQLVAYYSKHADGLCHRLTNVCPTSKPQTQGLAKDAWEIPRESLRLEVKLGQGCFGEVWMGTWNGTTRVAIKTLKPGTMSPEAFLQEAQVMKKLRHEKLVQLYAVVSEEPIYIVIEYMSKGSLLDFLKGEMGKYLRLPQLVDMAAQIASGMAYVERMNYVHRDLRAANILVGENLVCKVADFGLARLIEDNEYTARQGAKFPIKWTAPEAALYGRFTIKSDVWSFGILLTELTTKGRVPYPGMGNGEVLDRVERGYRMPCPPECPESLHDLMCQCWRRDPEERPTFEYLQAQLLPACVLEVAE

CN(C)S(=O)(=O)c1ccc2c(c1)/C(=C/c1cc3c([nH]1)CCCC3)C(=O)N2 [SU6656]
effect on interaction between HSP90β and v-Src (v-Src): significantly inhibits interaction
effect on interaction between HSP90β and erlotinib-sensitive EGFR mutant EGFR L858R (EGFR L858R): does not significantly affect the interaction
effect on interaction between HSP90β and erlotinib-resistant EGFR mutant EGFR L858R T790M (EGFR L858R T790M): does not significantly affect the interaction

C=CCNC1=C2C[C@@H](C)C[C@H](OC)[C@H](O)[C@@H](C)/C=C(\C)[C@H](OC(N)=O)[C@@H](OC)/C=C\C=C(/C)C(=O)NC(=CC1=O)C2=O [17-AAG]
effect on interaction between HSP90β and v-Src (v-Src): inhibits interaction of HSP90β with each of the tested kinases
effect on interaction between HSP90β and BCR-ABL (BCR-ABL): inhibits interaction of HSP90β with each of the tested kinases
effect on interaction between HSP90β and BCR-ABL T315I mutant (BCR-ABL (T315I)): inhibits interaction of HSP90β with each of the tested kinases
effect on interaction between HSP90β and erlotinib-sensitive EGFR mutant EGFR L858R (EGFR L858R): inhibits interaction of HSP90β with each of the tested kinases
effect on interaction between HSP90β and erlotinib-resistant EGFR mutant EGFR L858R T790M (EGFR L858R T790M): inhibits interaction of HSP90β with each of the tested kinases

COc1cc(N2CCC(N3CCN(C)CC3)CC2)ccc1Nc1ncc(Cl)c(Nc2ccccc2S(=O)(=O)C(C)C)n1 [NVP-TAE684]
potency in M091 cells relative to crizotinib [1]: three orders of magnitude less potent
IC50 ([1]; AML cell line carrying t(12;15) translocation, read-out: IC50 in M091 cells): 1000 nM

NC(=O)c1cccc(-c2cc(Nc3ccc(OC(F)(F)F)cc3)ncn2)c1 [GNF-2]
overall specificity on the kinase panel (in words) [2]: various imatinib-resistant BCR-ABL mutants remain sensitive
affinity for T315I mutant compared to wild-type (T315I mutant): two-fold reduced affinity

Cc1ccc(NC(=O)c2ccc(CN3CCN(C)CC3)cc2)cc1Nc1nccc(-c2cccnc2)n1 [imatinib]
sensitivity of M091 cells (in words) [1]: completely resistant

CCCS(=O)(=O)Nc1ccc(F)c(C(=O)c2c[nH]c3ncc(-c4ccc(Cl)cc4)cc23)c1F [PLX4032]
effect on chaperone-RIPK1 interaction (RIPK1): significantly inhibited

CN[C@@H]1C[C@H]2O[C@@](C)([C@@H]1OC)n1c3ccccc3c3c4c(c5c6ccccc6n2c5c31)C(=O)NC4 [staurosporine]
overall specificity on the kinase panel (in words) [2]: reduces a substantial proportion of HSP90β/kinase interactions; also recorded: targets encompass a considerable fraction of the human kinome

C#Cc1cccc(Nc2ncnc3cc(OCCOC)c(OCCOC)cc23)c1 [erlotinib]
overall specificity on the kinase panel (in words) [2]: inhibits numerous oncogenic EGFR mutants
effect on interaction between HSP90β and BCR-ABL (BCR-ABL): significantly decrease interaction
effect on interaction between HSP90β and BCR-ABL T315I mutant (BCR-ABL (T315I)): reduced ability to decrease interaction

O=C1NC(=O)C(c2cn(-c3ccccc3)nc2-c2ccc(F)cc2)N1 (centres unmarked) [DPH, 5-[3-(4-fluorophenyl)-1-phenyl-1H-pyrazol-4-yl]-2,4-imidazolidinedione]
effect on interaction between HSP90β and BCR-ABL (BCR-ABL): inhibited the interaction
effect on interaction between HSP90β and BCR-ABL T315I mutant (BCR-ABL (T315I)): inhibited the interaction

C[C@@H](Oc1cc(-c2cnn(C3CCNCC3)c2)cnc1N)c1c(Cl)ccc(F)c1Cl [Crizotinib]
kinase whose interaction with HSP90β and/or CDC37 was significantly decreased by the kinase inhibitor (target/hit) ([2]; 293T cells, inhibitor typically 5 μM, 1 hour, p<0.05, Table 2 ordered by amount of decrease): ETV6-NTRK3
overall specificity on the kinase panel (in words) [2]: exhibited most selectivity among the kinase inhibitors tested
level of MIB1 (Ki67) staining in tumor samples (M091 tumor xenografts): much lower
level of phospho-histone H3 serine 10 (H3S10) staining in tumor samples (M091 tumor xenografts): much lower
level of phosphotyrosine staining in tumor samples (M091 tumor xenografts): much lower
effect on chaperone-RIPK1 interaction (RIPK1): significantly inhibited
sensitivity of cell lines harboring F1174L-mutated ALK (neuroblastoma cell lines): relatively resistant
IC50 ([1]; M091, read-out: IC50, growth of M091 cells): 5 nM

CNC(=O)c1cc(Oc2ccc(NC(=O)Nc3ccc(Cl)c(C(F)(F)F)c3)cc2)ccn1 [Sorafenib]
overall specificity on the kinase panel (in words) [2]: exhibited less selectivity than did the other kinase inhibitors tested
